# Measurements: patent US11787780B2 (CORCEPT THERAPEUTICS INCORPORATED, priority 2020, dated 2023)
# pIC50, pKi: −log10 of the molar value.
# Assays:
# [1] = system: induction of TAT by dexamethasone in HepG2 cells; assay: Hep G2 TAT assay (inhibition of dexamethasone-induced TAT); type: cell-based, human; settings: challenge of 100 nM dexamethasone, IC50 converted to Ki by Cheng and Prusoff equation
# [2] = molecular target: glucocorticoid receptor (GR) recombinant ligand binding domain (LBD) (Homo sapiens (Human), UniProt P04150); assay: GR binding fluorescence polarisation (FP) assay; settings: displacement of fluorescently tagged ligand
# Description: Binding of test compounds to the glucocorticoid receptor (GR) is determined using a fluorescence polarisation (FP) assay utilising a recombinant ligand binding domain (LBD) of GR. The test compounds are assessed by their ability to displace a fluorescently tagged ligand and detection of the resulting decrease in fluorescence polarisation.
# glucocorticoid receptor (GR) recombinant ligand binding domain (LBD), sequence (P04150 524-758): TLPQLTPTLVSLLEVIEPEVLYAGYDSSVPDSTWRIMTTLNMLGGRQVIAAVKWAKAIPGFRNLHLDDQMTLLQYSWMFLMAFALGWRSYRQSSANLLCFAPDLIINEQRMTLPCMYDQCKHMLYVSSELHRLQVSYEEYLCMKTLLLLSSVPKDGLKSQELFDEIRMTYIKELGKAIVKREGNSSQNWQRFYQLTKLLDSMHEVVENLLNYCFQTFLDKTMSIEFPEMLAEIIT
Structure (SMILES),pKi [1],pIC50 [2]
Cc1cc2c(cnn2-c2ccc(F)cc2)cc1C1(Cc2ccccn2)CCN(S(=O)(=O)c2cnn(C)c2)C1 (stereo not shown) [Example 151],6.79,7.77
Cc1cc2c(cnn2-c2ccc(F)cc2)cc1C1(Cc2ccccc2)CCN(C(=O)c2cscn2)C1 (stereo not shown) [Example 235],7.47,7.92
"Cc1cc2c(cnn2-c2ccc(=O)n(C)c2)cc1C1(Cc2ccccc2)CCN(S(=O)(=O)c2cccc(C(F)(F)F)n2)C1 (stereo not shown) [Example 303, 5-(5-(3-benzyl-1-((6-(trifluoromethyl)pyridin-2-yl)sulfonyl)pyrrolidin-3-yl)-6-methyl-1H-indazol-1-yl)-1-methylpyridin-2(1H)-one]",7.62,8.36
"Cc1cc2c(cnn2-c2ccc(F)cc2)cc1C1(Cc2ccccc2)CCN(C(=O)c2cncs2)C1 (stereo not shown) [Example 232, (3-benzyl-3-(1-(4-fluorophenyl)-6-methyl-1H-indazol-5-yl)pyrrolidin-1-yl)(thiazol-5-yl)methanone]",7.43,8.00
"Cc1cc2c(cnn2-c2ccc(=O)n(C)c2)cc1C1(Cc2ccccc2)CCN(S(=O)(=O)c2ccccc2)C1 (stereo not shown) [Example 294, 5-(5-(3-benzyl-1-(phenylsulfonyl)pyrrolidin-3-yl)-6-methyl-1H-indazol-1-yl)-1-methylpyridin-2(1H)-one]",7.39,8.40
Cn1cc(S(=O)(=O)N2CCC(Cc3ccccc3)(c3cc4cnn(-c5ccc(F)cc5)c4cc3F)C2)cn1 (stereo not shown) [Example 173],7.16,7.18
COc1cc2c(cnn2-c2ccc(=O)n(C)c2)cc1C1(Cc2ccccc2)CCN(S(=O)(=O)C2CC2)C1 (stereo not shown) [Example 321],6.57,7.85
Cc1cc2c(cnn2-c2ccc(F)cc2)cc1C1(Cc2ccc(C(F)(F)F)cn2)CCN(S(=O)(=O)c2cnn(C)c2)C1 (stereo not shown) [Example 169],6.80,6.66
COc1cc2c(cnn2-c2ccc(F)cc2)cc1C1(Cc2ccccc2)CCN(S(=O)(=O)c2cnn(C)c2)C1 (stereo not shown) [Example 161],7.41,7.96
CCCn1cc(S(=O)(=O)N2CCC(Cc3ccccc3)(c3cc4cnn(-c5ccc(F)cc5)c4cc3OC)C2)cn1 (stereo not shown) [Example 162],7.80,7.74
"Cc1cc2c(cnn2-c2cnn(C3CC3)c2)cc1C1(Cc2ccccc2)CCN(S(=O)(=O)c2cnn(C)n2)C1 (stereo not shown) [Example 252, 5-(3-benzyl-1-((2-methyl-2H-1,2,3-triazol-4-yl)sulfonyl)pyrrolidin-3-yl)-1-(1-cyclopropyl-1H-pyrazol-4-yl)-6-methyl-1H-indazole]",7.03,7.54
CC(C)c1cc2c(cnn2-c2ccc(F)cc2)cc1C1(Cc2ccccc2)CCN(S(C)(=O)=O)C1 (stereo not shown) [Example 163],7.22,6.97
Cc1cc2c(cnn2-c2ccc(F)cc2)cc1C1(Cc2ccccn2)CCN(S(C)(=O)=O)C1 (stereo not shown) [Example 150],6.77,7.89
"Cn1ncc(S(=O)(=O)N2CCC(Cc3ccccc3)(c3cc4cnn(-c5ccc(F)cc5)c4cc3Cl)C2)n1 (stereo not shown) [Example 226, 5-(3-benzyl-1-((2-methyl-2H-1,2,3-triazol-4-yl)sulfonyl)pyrrolidin-3-yl)-6-chloro-1-(4-fluorophenyl)-1H-indazole]",7.89,7.68
Cc1cc2c(cnn2-c2ccc(F)cc2)cc1N1CCC(C)(NS(=O)(=O)c2cnn(CC3CC3)n2)CC1 [Example 132],7.47,7.89
"Cc1cc2c(cnn2-c2cnn(C)c2)cc1C1(Cc2ccccc2)CCN(S(=O)(=O)c2cnn(C)n2)C1 (stereo not shown) [Example 249, 5-(3-benzyl-1-((2-methyl-2H-1,2,3-triazol-4-yl)sulfonyl)pyrrolidin-3-yl)-6-methyl-1-(1-methyl-1H-pyrazol-4-yl)-1H-indazole]",7.41,8.32
Cc1cc2c(cnn2-c2ccc(F)cc2)cc1C1(Cc2ccccc2)CCN(S(=O)(=O)c2cnn(C)c2)C1 (stereo not shown) [Example 153],7.59,7.96
CC(C)c1cc2c(cnn2-c2ccc(F)cc2)cc1C1(Cc2ccccc2)CCN(S(=O)(=O)c2cnn(C)c2)C1 (stereo not shown) [Example 164],7.05,6.72
"COc1ccc(S(=O)(=O)N2CCC(Cc3ccccc3)(c3cc4cnn(-c5ccc(=O)n(C)c5)c4cc3C)C2)cc1 (stereo not shown) [Example 304, 5-(5-(3-benzyl-1-((4-methoxyphenyl)sulfonyl)pyrrolidin-3-yl)-6-methyl-1H-indazol-1-yl)-1-methylpyridin-2(1H)-one]",7.32,8.12
"CCCn1cc(S(=O)(=O)N2CCC(COC)(c3cc4cnn(-c5ccc(F)cc5)c4cc3C)CC2)cn1 [Example 24, 1-(4-fluorophenyl)-5-(4-(methoxymethyl)-1-((1-propyl-1H-pyrazol-4-yl)sulfonyl)piperidin-4-yl)-6-methyl-1H-indazole]",5.82,7.08

Structure (SMILES),pKi [1],pIC50 [2]
"Cc1cc2c(cnn2-c2ccc(=O)n(C)c2)cc1C1(Cc2ccccc2)CCN(S(=O)(=O)c2ccn(C)n2)C1 (stereo not shown) [Example 276, 5-(5-(3-benzyl-1-((1-methyl-1H-pyrazol-3-yl)sulfonyl)pyrrolidin-3-yl)-6-methyl-1H-indazol-1-yl)-1-methylpyridin-2(1H)-one]",7.28,8.27
Cc1cc2c(cc1C1(Cc3ccccc3)CCN(S(=O)(=O)c3cnn(C)c3)C1)nnn2-c1ccc(F)cc1 (stereo not shown) [Example 172],7.08,7.24
"Cc1cc2c(cnn2-c2ccc(F)cc2)cc1C1(CC#CC2CC2)CCN(S(=O)(=O)c2cnn(C)c2)C1 (stereo not shown) [Example 221, 5-(3-(3-cyclopropylprop-2-yn-1-yl)-1-((1-methyl-1H-pyrazol-4-yl)sulfonyl)pyrrolidin-3-yl)-1-(4-fluorophenyl)-6-methyl-1H-indazole]",7.35,7.25
CCCn1cc(S(=O)(=O)N2C[C@H](C)N(c3ccc4c(cnn4-c4ccc(F)cc4)c3)C[C@@H]2C)cn1 [Example 61],6.69,7.60
"CC(=O)N1CCC(Cc2ccccc2)(c2cc3cnn(-c4ccc(F)cc4)c3cc2C)C1 (stereo not shown) [Example 190, 1-(3-benzyl-3-(1-(4-fluorophenyl)-6-methyl-1H-indazol-5-yl)pyrrolidin-1-yl)ethan-1-one]",7.26,8.30
"Cc1cc2c(cnn2-c2ccc(=O)n(C)c2)cc1C1(Cc2ccccc2)CCN(C(=O)c2ccccc2)C1 (stereo not shown) [Example 326, 5-(5-(1-benzoyl-3-benzylpyrrolidin-3-yl)-6-methyl-1H-indazol-1-yl)-1-methylpyridin-2(1H)-one]",7.24,7.36
"CS(=O)(=O)N1CCC(Cc2ccccc2)(c2cc3cnn(-c4ccc(F)cc4)c3cc2Cl)C1 (stereo not shown) [Example 222, 5-(3-benzyl-1-(methylsulfonyl)pyrrolidin-3-yl)-6-chloro-1-(4-fluorophenyl)-1H-indazole]",7.41,7.96
Cc1cc2c(cnn2-c2ccc(F)cc2)cc1N1CCN(S(=O)(=O)c2cnn(C)c2)C2(CC2)C1 [Example 59],6.61,7.72
"Cc1cc2c(cnn2-c2ccc(=O)n(C)c2)cc1C1(Cc2ccccc2)CCN(S(=O)(=O)c2cnn(C)c2C)C1 (stereo not shown) [Example 284, 5-(5-(3-benzyl-1-((1,5-dimethyl-1H-pyrazol-4-yl)sulfonyl)pyrrolidin-3-yl)-6-methyl-1H-indazol-1-yl)-1-methylpyridin-2(1H)-one]",7.24,–
"Cc1cc(CC(=O)N2CCC(Cc3ccccc3)(c3cc4cnn(-c5ccc(F)cc5)c4cc3C)C2)on1 (stereo not shown) [Example 197, 1-(3-benzyl-3-(1-(4-fluorophenyl)-6-methyl-1H-indazol-5-yl)pyrrolidin-1-yl)-2-(3-methylisoxazol-5-yl)ethan-1-one]",7.19,–
Cc1cc2c(cnn2-c2ccc(F)cc2)cc1C1(Cc2cncs2)CCN(S(=O)(=O)c2cnn(C)c2)C1 (stereo not shown) [Example 179],6.48,–
Cc1cc2c(cnn2-c2ccc(F)cc2)cc1N1CCN(S(=O)(=O)c2cnn(C3CCOC3)c2)C2(CC2)C1 (stereo not shown) [Example 79],7.08,–
"CCCn1cc(S(=O)(=O)N2CCC(Cc3ccccc3)(c3cc4cnn(-c5ccc(F)cc5)c4cc3Cl)C2)cn1 (stereo not shown) [Example 224, 5-(3-benzyl-1-((1-propyl-1H-pyrazol-4-yl)sulfonyl)pyrrolidin-3-yl)-6-chloro-1-(4-fluorophenyl)-1H-indazole]",7.68,–
CCCn1cc(S(=O)(=O)N2CC=C(c3cc4cnn(-c5cccc(C(=O)NC6CCOC6)c5)c4cc3C)CC2)cn1 (stereo not shown) [Example 145],6.68,–
"Cc1cc2c(cnn2-c2ccc(F)cc2)cc1C1(/C=C/c2ccccc2)CCN(S(=O)(=O)c2cnn(C)c2)C1 (stereo not shown) [Example 342, (E)-1-(4-fluorophenyl)-6-methyl-5-(1-((1-methyl-1H-pyrazol-4-yl)sulfonyl)-3-styrylpyrrolidin-3-yl)-1H-indazole]",6.96,–
"Cc1cc(S(=O)(=O)N2CCC(Cc3ccccc3)(c3cc4cnn(-c5ccc(=O)n(C)c5)c4cc3C)C2)n(C)n1 (stereo not shown) [Example 283, 5-(5-(3-benzyl-1-((1,3-dimethyl-1H-pyrazol-5-yl)sulfonyl)pyrrolidin-3-yl)-6-methyl-1H-indazol-1-yl)-1-methylpyridin-2(1H)-one]",7.19,–
Cc1cc2c(cnn2-c2ccc(F)cc2)cc1C1(Cc2nccs2)CCN(S(C)(=O)=O)C1 (stereo not shown) [Example 187],6.70,–
"Cc1cc2c(cnn2-c2ccc(=O)n(C)c2)cc1C1(Cc2ccccc2)CCN(S(=O)(=O)c2cnn(C(F)F)c2)C1 (stereo not shown) [Example 280, 5-(5-(3-benzyl-1-((1-(difluoromethyl)-1H-pyrazol-4-yl)sulfonyl)pyrrolidin-3-yl)-6-methyl-1H-indazol-1-yl)-1-methylpyridin-2(1H)-one]",7.38,–
"Cc1cc2c(cnn2-c2ccc(F)cc2)cc1C1(Cc2ccccc2)CCN(C(=O)c2csc(C(F)(F)F)n2)C1 (stereo not shown) [Example 229, (3-benzyl-3-(1-(4-fluorophenyl)-6-methyl-1H-indazol-5-yl)pyrrolidin-1-yl)(2-(trifluoromethyl)thiazol-4-yl)methanone]",6.68,–
